Test system: 354836-022-R-J1-PDC multicell spheroid viability
Assay: Anticancer human tumor 354836-022-R-J1-PDC patient-derived head and neck squamous cell carcinoma cell line growth inhibition [PI3K]
Settings: second compound 0.01 µM; first compound 10 µM; stronger effect = lower value
Procedure, shortened: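 Combination activity was assessed by viability in multicellular tumor spheroids carrying HUVEC and MSC components. Agents were tested with PI3K inhibitors from a Cmax-based top dose (or 10 microM) downward in half-log increments.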
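Further: spheroids exposed to agents for seven days before the viability read.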

Structure (SMILES) | viability, T/C
C#Cc1c(F)ccc2cc(O)cc(-c3ncc4c(N5CC6CCC(C5)N6)nc(OCC56CCCN5CC(F)C6)nc4c3F)c12 (stereo unspecified) + CC(Nc1ccc2c(c1)OCCn1cc(N3C(=O)OCC3C(F)F)nc1-2)C(N)=O | 99%
CC(C)NCC(C(=O)N1CCN(c2ncnc3c2C(C)CC3O)CC1)c1ccc(Cl)cc1 (stereo unspecified) + COc1c(OCCCN2CCOCC2)ccc2c3n(c(=NC(=O)c4cnc(N)nc4)nc12)CCN3 | 2.96%

Same assay, conditions: second compound 0.0316 µM; first compound 0.00316 µM; stronger effect = lower value

Structure (SMILES) | viability, T/C
CCN1CCN(Cc2ccc(Nc3ncc(F)c(-c4cc(F)c5nc(C)n(C(C)C)c5c4)n3)nc2)CC1 + CC(Nc1ncnc2nc[nH]c12)c1cc2cccc(Cl)c2c(=O)n1-c1ccccc1 | 109%

Same assay, conditions: second compound 0.0316 µM; first compound 0.01 µM; stronger effect = lower value

Structure (SMILES) | viability, T/C
CCN1CCN(Cc2ccc(Nc3ncc(F)c(-c4cc(F)c5nc(C)n(C(C)C)c5c4)n3)nc2)CC1 + CC(Nc1ncnc2nc[nH]c12)c1cc2cccc(Cl)c2c(=O)n1-c1ccccc1 | 103%

Same assay, conditions: second compound 0.0316 µM; first compound 0.0316 µM; stronger effect = lower value

Structure (SMILES) | viability, T/C
C=CC(=O)N1CCN(c2nc(=O)n(-c3c(C)ccnc3C(C)C)c3nc(-c4c(O)cccc4F)c(F)cc23)C(C)C1 (stereo unspecified) + CC(Nc1ncnc2nc[nH]c12)c1cc2cccc(Cl)c2c(=O)n1-c1ccccc1 | 93.1%
CCN1CCN(Cc2ccc(Nc3ncc(F)c(-c4cc(F)c5nc(C)n(C(C)C)c5c4)n3)nc2)CC1 + CC(Nc1ncnc2nc[nH]c12)c1cc2cccc(Cl)c2c(=O)n1-c1ccccc1 | 97.6%
C#Cc1c(F)ccc2cc(O)cc(-c3ncc4c(N5CC6CCC(C5)N6)nc(OCC56CCCN5CC(F)C6)nc4c3F)c12 (stereo unspecified) + CC(Nc1ccc2c(c1)OCCn1cc(N3C(=O)OCC3C(F)F)nc1-2)C(N)=O | 87.3%
CC(C)NCC(C(=O)N1CCN(c2ncnc3c2C(C)CC3O)CC1)c1ccc(Cl)cc1 (stereo unspecified) + COc1c(OCCCN2CCOCC2)ccc2c3n(c(=NC(=O)c4cnc(N)nc4)nc12)CCN3 | 68.8%
CC1(C)CCC(Nc2ncc(C(F)(F)F)c(-c3c[nH]c4c(P(C)(C)=O)c(C#N)ccc34)n2)CN1 (stereo unspecified) + Cc1nc(NC(=O)N2CCCC2C(N)=O)sc1-c1ccnc(C(C)(C)C(F)(F)F)c1 | 20.2%

Same assay, conditions: second compound 0.0316 µM; first compound 0.1 µM; stronger effect = lower value

Structure (SMILES) | viability, T/C
C=CC(=O)N1CCN(c2nc(=O)n(-c3c(C)ccnc3C(C)C)c3nc(-c4c(O)cccc4F)c(F)cc23)C(C)C1 (stereo unspecified) + CC(Nc1ncnc2nc[nH]c12)c1cc2cccc(Cl)c2c(=O)n1-c1ccccc1 | 84.5%
CCN1CCN(Cc2ccc(Nc3ncc(F)c(-c4cc(F)c5nc(C)n(C(C)C)c5c4)n3)nc2)CC1 + CC(Nc1ncnc2nc[nH]c12)c1cc2cccc(Cl)c2c(=O)n1-c1ccccc1 | 96.7%
C#Cc1c(F)ccc2cc(O)cc(-c3ncc4c(N5CC6CCC(C5)N6)nc(OCC56CCCN5CC(F)C6)nc4c3F)c12 (stereo unspecified) + CC(Nc1ccc2c(c1)OCCn1cc(N3C(=O)OCC3C(F)F)nc1-2)C(N)=O | 108%
CC(C)NCC(C(=O)N1CCN(c2ncnc3c2C(C)CC3O)CC1)c1ccc(Cl)cc1 (stereo unspecified) + COc1c(OCCCN2CCOCC2)ccc2c3n(c(=NC(=O)c4cnc(N)nc4)nc12)CCN3 | 52.7%
CC1(C)CCC(Nc2ncc(C(F)(F)F)c(-c3c[nH]c4c(P(C)(C)=O)c(C#N)ccc34)n2)CN1 (stereo unspecified) + Cc1nc(NC(=O)N2CCCC2C(N)=O)sc1-c1ccnc(C(C)(C)C(F)(F)F)c1 | 20.2%

Same assay, conditions: second compound 0.0316 µM; first compound 0.316 µM; stronger effect = lower value

Structure (SMILES) | viability, T/C
C=CC(=O)N1CCN(c2nc(=O)n(-c3c(C)ccnc3C(C)C)c3nc(-c4c(O)cccc4F)c(F)cc23)C(C)C1 (stereo unspecified) + CC(Nc1ncnc2nc[nH]c12)c1cc2cccc(Cl)c2c(=O)n1-c1ccccc1 | 103%
CCN1CCN(Cc2ccc(Nc3ncc(F)c(-c4cc(F)c5nc(C)n(C(C)C)c5c4)n3)nc2)CC1 + CC(Nc1ncnc2nc[nH]c12)c1cc2cccc(Cl)c2c(=O)n1-c1ccccc1 | 81.7%
C#Cc1c(F)ccc2cc(O)cc(-c3ncc4c(N5CC6CCC(C5)N6)nc(OCC56CCCN5CC(F)C6)nc4c3F)c12 (stereo unspecified) + CC(Nc1ccc2c(c1)OCCn1cc(N3C(=O)OCC3C(F)F)nc1-2)C(N)=O | 80.9%
CC(C)NCC(C(=O)N1CCN(c2ncnc3c2C(C)CC3O)CC1)c1ccc(Cl)cc1 (stereo unspecified) + COc1c(OCCCN2CCOCC2)ccc2c3n(c(=NC(=O)c4cnc(N)nc4)nc12)CCN3 | 34.5%
CC1(C)CCC(Nc2ncc(C(F)(F)F)c(-c3c[nH]c4c(P(C)(C)=O)c(C#N)ccc34)n2)CN1 (stereo unspecified) + Cc1nc(NC(=O)N2CCCC2C(N)=O)sc1-c1ccnc(C(C)(C)C(F)(F)F)c1 | 26.7%

Same assay, conditions: second compound 0.0316 µM; first compound 1 µM; stronger effect = lower value

Structure (SMILES) | viability, T/C
C=CC(=O)N1CCN(c2nc(=O)n(-c3c(C)ccnc3C(C)C)c3nc(-c4c(O)cccc4F)c(F)cc23)C(C)C1 (stereo unspecified) + CC(Nc1ncnc2nc[nH]c12)c1cc2cccc(Cl)c2c(=O)n1-c1ccccc1 | 103%
CCN1CCN(Cc2ccc(Nc3ncc(F)c(-c4cc(F)c5nc(C)n(C(C)C)c5c4)n3)nc2)CC1 + CC(Nc1ncnc2nc[nH]c12)c1cc2cccc(Cl)c2c(=O)n1-c1ccccc1 | 47.3%
C#Cc1c(F)ccc2cc(O)cc(-c3ncc4c(N5CC6CCC(C5)N6)nc(OCC56CCCN5CC(F)C6)nc4c3F)c12 (stereo unspecified) + CC(Nc1ccc2c(c1)OCCn1cc(N3C(=O)OCC3C(F)F)nc1-2)C(N)=O | 95.5%
CC(C)NCC(C(=O)N1CCN(c2ncnc3c2C(C)CC3O)CC1)c1ccc(Cl)cc1 (stereo unspecified) + COc1c(OCCCN2CCOCC2)ccc2c3n(c(=NC(=O)c4cnc(N)nc4)nc12)CCN3 | 19.4%
CC1(C)CCC(Nc2ncc(C(F)(F)F)c(-c3c[nH]c4c(P(C)(C)=O)c(C#N)ccc34)n2)CN1 (stereo unspecified) + Cc1nc(NC(=O)N2CCCC2C(N)=O)sc1-c1ccnc(C(C)(C)C(F)(F)F)c1 | 25.1%

Same assay, conditions: second compound 0.0316 µM; first compound 3.16 µM; stronger effect = lower value

Structure (SMILES) | viability, T/C
C=CC(=O)N1CCN(c2nc(=O)n(-c3c(C)ccnc3C(C)C)c3nc(-c4c(O)cccc4F)c(F)cc23)C(C)C1 (stereo unspecified) + CC(Nc1ncnc2nc[nH]c12)c1cc2cccc(Cl)c2c(=O)n1-c1ccccc1 | 98.7%
C#Cc1c(F)ccc2cc(O)cc(-c3ncc4c(N5CC6CCC(C5)N6)nc(OCC56CCCN5CC(F)C6)nc4c3F)c12 (stereo unspecified) + CC(Nc1ccc2c(c1)OCCn1cc(N3C(=O)OCC3C(F)F)nc1-2)C(N)=O | 97.8%

Source: PubChem BioAssay AID1963981 (Molecular Pharmacology Branch, DTP, NCI, 2024)
